Among the data in BindingDB's records for doi:10.1016/j.bmcl.2016.06.076 (Leiden University, 2016) are IC50 values, retold here.

By pIC50 is commonly meant −log10 of the IC50, conventionally taken in molar units. Low readings indicate a high IC50, high ones a low IC50.

pIC50: −log10 of the molar value.

This test addresses T1, Diacylglycerol lipase-alpha (Homo sapiens, UniProt Q9Y4D2).
T1 sequence (Q9Y4D2 whole entry): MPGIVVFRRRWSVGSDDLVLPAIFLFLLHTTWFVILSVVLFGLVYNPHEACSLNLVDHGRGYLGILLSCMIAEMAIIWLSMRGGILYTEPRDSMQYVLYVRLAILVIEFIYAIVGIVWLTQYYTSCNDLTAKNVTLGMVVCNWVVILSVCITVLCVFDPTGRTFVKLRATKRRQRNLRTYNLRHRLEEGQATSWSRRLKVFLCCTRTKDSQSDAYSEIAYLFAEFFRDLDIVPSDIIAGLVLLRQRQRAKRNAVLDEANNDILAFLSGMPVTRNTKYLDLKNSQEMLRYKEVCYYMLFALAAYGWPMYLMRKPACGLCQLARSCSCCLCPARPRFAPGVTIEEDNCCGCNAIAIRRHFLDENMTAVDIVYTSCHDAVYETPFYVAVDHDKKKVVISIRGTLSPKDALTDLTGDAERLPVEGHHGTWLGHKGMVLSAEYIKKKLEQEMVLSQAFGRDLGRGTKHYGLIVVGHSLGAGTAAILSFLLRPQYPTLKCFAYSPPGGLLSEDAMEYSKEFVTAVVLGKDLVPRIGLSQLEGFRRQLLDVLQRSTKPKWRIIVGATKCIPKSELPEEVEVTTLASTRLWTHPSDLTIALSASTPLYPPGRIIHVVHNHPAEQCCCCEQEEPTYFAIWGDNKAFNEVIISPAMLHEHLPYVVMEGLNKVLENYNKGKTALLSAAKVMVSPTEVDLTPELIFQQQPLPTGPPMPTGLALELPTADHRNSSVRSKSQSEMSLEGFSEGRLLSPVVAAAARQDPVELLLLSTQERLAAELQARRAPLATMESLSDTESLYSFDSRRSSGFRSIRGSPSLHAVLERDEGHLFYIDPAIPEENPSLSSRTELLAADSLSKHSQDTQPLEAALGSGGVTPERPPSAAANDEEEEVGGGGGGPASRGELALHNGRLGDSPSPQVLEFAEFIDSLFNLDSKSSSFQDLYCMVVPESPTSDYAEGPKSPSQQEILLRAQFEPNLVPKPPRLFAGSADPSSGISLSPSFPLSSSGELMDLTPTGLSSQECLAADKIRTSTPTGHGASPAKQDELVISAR
The experiment in a line: Inhibition of human DAGLalpha expressed in HEK293T cell membrane fractions using PNP butyrate as substrate preincubated for 20 mins followed by substrate addition by colorimetric surrogate substrate assay.

`O=C(CCCCCc1ccccc1)c1nc2ncccc2o1` [1-(oxazolo[4,5-b]pyridin-2-yl)-6-phenylhexan-1-one] had a pIC50 of 7.40.
